CC50 data for six compounds are collected here from ChEMBL document CHEMBL3867442, “Naphthalene Derivatives from the Roots of Pentas parvifolia and Pentas bussei” (2016).

The assay is described as follows: Cytotoxicity against human MDA-MB-231 cells after 72 hrs by alamar blue assay. The format is functional. The following applies: MDA-MB-231, 72 h, read-out: LD50 (the source's name). For orientation: Alamar Blue is a resazurin reagent that responds to reducing activity.

Where only a bound is given, the exact number is not on record here.

For the compound `COc1c(C)c(O)cc2c1C(=O)c1ccccc1C2=O`, the CC50 worked out at 54.4 µM.

Consider `COc1cc(C(=O)O)c(O)c2ccc3c(c12)C=CC(C)(CCC=C(C)C)O3` (stereo unspecified) [BUSSEIHYDROQUINONE C], for which the CC50 was determined as 48.4 µM.

Turning to `COC(=O)c1cc(OC)c2c(O)c(O)ccc2c1O`, the CC50 was found to be 96.5 µM.

`CCO[C@@H]1O[C@H]2c3c(ccc4c(O)c(C(=O)O)cc(OC)c34)O[C@@]3(C)CC[C@@H]([C@H]1C)[C@@H]23`: the CC50 is 62.3 µM.

As for `COc1c(C=O)c(O)cc2c1C(=O)c1ccccc1C2=O` [DAMNACANTHAL], the CC50 was more than 352 µM.

In the case of `COc1cc(C(=O)O)c(O)c2ccc3c(c12)[C@@H]1O[C@@H](OC)[C@H](C)[C@@H]2CC[C@](C)(O3)[C@@H]21`, the CC50 stood at 130 µM.
